Results reported in ChEMBL document CHEMBL3351365, “Short oligonucleotide prodrug having 5-fluoro and 5-iodouracil inhibits the proliferation of cancer cells in a photo-responsive manner” (Bioorg Med Chem Lett, 2014).

Assay: Retention time of the compound treated with FU'U ODN by HPLC analysis
Type: physicochemical

Retention_time: 19 min
SMILES: O=c1[nH]c(=O)n([C@H]2C[C@H](O)[C@@H](CO)O2)cc1F [FLOXURIDINE]
